Series [1] deals with Human immunodeficiency virus 1. The series can be described thus: microbe, parasite or virus in culture. In kind it is functional, organism-based. As to conditions: Human immunodeficiency virus 1, 3B, CCRF-CEM.
Description: Antiviral activity against HIV1 3B infected in human CEM/0 cells assessed as inhibition of viral-induced giant cell formation incubated for 4 to 5 days by microscopy
Series [2] is described as follows: Cytotoxicity in human CEM/0 cells assessed as reduction in cell viability incubated for 4 to 5 days.
The nature of series [3]: Stability in aqueous 25 mM PBS at pH 7.3 assessed as hydrolysis half life by HPLC analysis. It is filed as physicochemical.
Series [4] is described as follows: Stability in human CEM/0 cell extracts assessed as hydrolysis half life by HPLC analysis. In kind it is ADME, CCRF-CEM.
In series [5] the test system is pig liver esterase. Put plainly: Stability in pH 7.3 PBS assessed as pig liver esterase mediated hydrolysis by measuring half life by HPLC analysis. It is filed as ADME, Sus scrofa.

pEC50: −log10 of the molar value.

For orientation: pEC50 means −log10 of the EC50, conventionally taken in molar units. Read a low pEC50 as a high EC50. As usually defined, the CC50 is the concentration that lowers cell viability or growth by half. What is called half-life is the time in which the quantity being followed falls by half.

The compound `Cc1cn([C@@H]2C[C@H](CO)[C@@H](O)C2)c(=O)[nH]c1=O` showed a pEC50 in series [1] of 4.44. For the same compound, in series [2] (CEM/0 cells), the CC50 was over 250 µM.

As for `CCCCCCCCCCCCCCCCOC(=O)Oc1ccc(COP(=O)(OCc2ccc(OC(=O)CCCC)cc2)OP(=O)(O)OP(=O)(O)OC[C@H]2O[C@@H](n3cc(/C=C/Br)c(=O)[nH]c3=O)C[C@@H]2O)cc1.N.N` (some centres not stated), the half-life in series [3] is 62 h; in series [4], 1.31 h; in series [5] it was 7 h. Also, the negative logarithm of the EC50 (pEC50) in series [1] is 5.83. In addition, the half-maximal cytotoxic concentration (CC50) in series [2] (CEM/0 cells) stood at 43 µM.

Consider `CCCCCCCCCCCCCCCCOC(=O)Oc1ccc(COP(=O)(OCc2ccc(OC(=O)CC)cc2)OP(=O)(O)OP(=O)(O)OC[C@H]2C[C@@H](n3cc(C)c(=O)[nH]c3=O)C[C@@H]2O)cc1.N.N` (some centres not stated), for which the half-life in series [3] was 74 h. The pEC50 in series [1] is 6.28. The CC50 in series [2] (CEM/0 cells) came to 36 µM.

As to `CCCCCCCCCCCCCCCCOC(=O)Oc1ccc(COP(=O)(OCc2ccc(OC(=O)CC)cc2)OP(=O)(O)OP(=O)(O)OC[C@@H]2C=C[C@H](n3cc(C)c(=O)[nH]c3=O)O2)cc1` (some centres not stated), the pEC50 in series [1] was 7.57.

As for `CCCCCCCCCCCCCCCCOC(=O)Oc1ccc(COP(=O)(OCc2ccc(OC(=O)CC)cc2)OP(=O)(O)OP(=O)(O)OC[C@H]2O[C@@H](n3cc(C)c(=O)[nH]c3=O)C[C@@H]2O)cc1.N.N` (some centres not stated), the half-life in series [3] was 76 h. Further, the pEC50 in series [1] is 4.97. Moreover, the CC50 in series [2] (CEM/0 cells) stood at 14 µM.

For the compound `CCCCCCCCCCCCCCCCOC(=O)Oc1ccc(COP(=O)(OCc2ccc(OC(=O)CCCC)cc2)OP(=O)(O)OP(=O)(O)OC[C@H]2O[C@@H](n3cc(Cl)c(=O)[nH]c3=O)C[C@@H]2F)cc1.N.N` (some centres not stated), the half-life in series [3] is 66 h. In addition, the pEC50 in series [1] was 5.59. Also, the CC50 in series [2] (CEM/0 cells) was found to be 42 µM.

Consider `CCCCCCCCCCCCCCCCOC(=O)Oc1ccc(COP(=O)(OCc2ccc(OC(=O)CC)cc2)OP(=O)(O)OP(=O)(O)OC[C@@H]2O[C@H](n3cc(F)c(N)nc3=O)CS2)cc1.N.N` (some centres not stated), for which the half-life in series [3] is 45 h; in series [4], 1.49 h; in series [5], 2.6 h. The same compound showed a pEC50 in series [1] of 7.59. For the same compound, the CC50 in series [2] (CEM/0 cells) turned out to be 35 µM.

As to `CCCCCCCCCCCCCCCCOC(=O)Oc1ccc(COP(=O)(OCc2ccc(OC(=O)CCCC)cc2)OP(=O)(O)OP(=O)(O)OC[C@H]2O[C@@H](n3cc(C)c(=O)[nH]c3=O)C[C@@H]2N=[N+]=[N-])cc1.N.N` (some centres not stated), the half-life is 84 h in series [3], 5 h in series [4] and 4 h in series [5]. The compound also showed a pEC50 in series [1] of 8.43. For the same compound, the CC50 in series [2] (CEM/0 cells) was determined as 42 µM.

With `CCCCCCCCCCCCCCCCOC(=O)Oc1ccc(COP(=O)(OCc2ccc(OC(=O)CC)cc2)OP(=O)(O)OP(=O)(O)OC[C@H]2O[C@@H](n3cc(Cl)c(=O)[nH]c3=O)C[C@H]2N=[N+]=[N-])cc1.N.N` (some centres not stated), the half-life was 67 h in series [3], 2.52 h in series [4] and 3 h in series [5]. In series [1], the pEC50 was under 4.35. Besides, the CC50 in series [2] (CEM/0 cells) stood at 45 µM.

On to `CCCCCCCCCCCCCCCCOC(=O)Oc1ccc(COP(=O)(OCc2ccc(OC(=O)CCCC)cc2)OP(=O)(O)OP(=O)(O)OC[C@@H]2O[C@H](n3cc(F)c(N)nc3=O)CS2)cc1.N.N` (some centres not stated), for which the half-life was 36 h in series [3], 2.78 h in series [4] and 2.26 h in series [5]. This compound had a pEC50 in series [1] of 8.37. The cytotoxic concentration (CC50) in series [2] (CEM/0 cells) stood at 40.5 µM.

As for `CCCCCCCCCCCCCCCCOC(=O)Oc1ccc(COP(=O)(OCc2ccc(OC(=O)CC)cc2)OP(=O)(O)OP(=O)(O)OC[C@H]2O[C@@H](n3cc(/C=C/Br)c(=O)[nH]c3=O)C[C@@H]2O)cc1.N.N` (some centres not stated), the half-life in series [3] was 56 h. In series [1], this compound gave a pEC50 of 4.95. The CC50 in series [2] (CEM/0 cells) was 43 µM.

Turning to `CCCCCCCCCCCCCCCCOC(=O)Oc1ccc(COP(=O)(OCc2ccc(OC(=O)CC)cc2)OP(=O)(O)OP(=O)(O)OC[C@H]2O[C@@H](n3cc(C)c(=O)[nH]c3=O)C[C@@H]2N=[N+]=[N-])cc1.N.N` (some centres not stated), in series [3], the half-life was 83 h. In series [1], this compound showed a pEC50 of 8.03. Further, the CC50 in series [2] (CEM/0 cells) is 48 µM.

In the case of `CCCCCCCCCCCCCCCCOC(=O)Oc1ccc(COP(=O)(O)OP(=O)(O)OP(=O)(O)OC[C@H]2O[C@@H](n3cc(Cl)c(=O)[nH]c3=O)C[C@@H]2F)cc1`, the pEC50 in series [1] was 5.60. The CC50 in series [2] (CEM/0 cells) came out at 54 µM.

`[N-]=[N+]=N[C@@H]1C[C@H](n2cc(Cl)c(=O)[nH]c2=O)O[C@@H]1CO` gave a pEC50 in series [1] of under 4.00. The CC50 in series [2] (CEM/0 cells) was over 100 µM.

Consider `CCCCCCCCCCCCCCCCOC(=O)Oc1ccc(COP(=O)(OCc2ccc(OC(=O)CC)cc2)OP(=O)(O)OP(=O)(O)OC[C@H]2O[C@@H](n3cc(Cl)c(=O)[nH]c3=O)C[C@@H]2F)cc1.N.N` (some centres not stated), for which the half-life in series [3] was 56 h; in series [4] it was 1.64 h. In series [1], this compound had a pEC50 of 5.89. Also, the CC50 in series [2] (CEM/0 cells) is 42 µM.

For `CCCCCCCCCCCCCCCCOC(=O)Oc1ccc(COP(=O)(OCc2ccc(OC(=O)CCCC)cc2)OP(=O)(O)OP(=O)(O)OC[C@@H]2CC[C@H](n3cnc4c(=O)[nH]cnc43)O2)cc1.N.N` (some centres not stated), the half-life in series [3] is 41 h; in series [4] it was 1.57 h; in series [5] it was 3.5 h. Further, the pEC50 in series [1] was 6.03. For the same compound, in series [2] (CEM/0 cells), the CC50 was determined as 43 µM.

`CCCCCCCCCCCCCCCCOC(=O)Oc1ccc(COP(=O)(OCc2ccc(OC(=O)CCCC)cc2)OP(=O)(O)OP(=O)(O)OC[C@@H]2C=C[C@H](n3cc(C)c(=O)[nH]c3=O)O2)cc1` (some centres not stated) showed a pEC50 in series [1] of 7.49.

On to `CCCCCCCCCCCCCCCCOC(=O)Oc1ccc(COP(=O)(OCc2ccc(OC(=O)CC)cc2)OP(=O)(O)OP(=O)(O)OC[C@H]2O[C@@H](n3ccc(=O)[nH]c3=O)C[C@H]2N=[N+]=[N-])cc1.N.N` (some centres not stated), for which the half-life is 68 h in series [3] and 1.54 h in series [4]. This compound also gave a pEC50 in series [1] of under 4.36. Also, the CC50 in series [2] (CEM/0 cells) was determined as 44 µM.

As to `[N-]=[N+]=N[C@@H]1C[C@H](n2ccc(=O)[nH]c2=O)O[C@@H]1CO`, the pEC50 in series [1] was under 3.60. The CC50 in series [2] (CEM/0 cells) was over 250 µM.

As to `O=c1[nH]c(=O)n([C@H]2C[C@H](O)[C@@H](CO)O2)cc1/C=C/Br` [BRIVUDINE], the pEC50 in series [1] was under 3.60. Besides, the cytotoxic concentration (CC50) in series [2] (CEM/0 cells) amounted to 207 µM.

With `O=c1[nH]cnc2c1ncn2[C@H]1CC[C@@H](CO)O1` [DIDANOSINE], the pEC50 in series [1] was 4.80. Further, the CC50 in series [2] (CEM/0 cells) is over 250 µM.

With `Cc1cn([C@H]2C[C@H](O)[C@@H](CO)O2)c(=O)[nH]c1=O` [DOXRIBTIMINE], the pEC50 in series [1] is 5.39. Moreover, the CC50 in series [2] (CEM/0 cells) was determined as 10.6 µM.

`Nc1nc(=O)n([C@@H]2CS[C@H](CO)O2)cc1F` [EMTRICITABINE]: the pEC50 in series [1] was 8.00. Further, the CC50 in series [2] (ccrf-cem) was over 100 µM.

Compound `O=c1[nH]c(=O)n([C@H]2C[C@H](F)[C@@H](CO)O2)cc1Cl` [RALURIDINE] had a negative logarithm of the EC50 (pEC50) in series [1] of under 3.60. In addition, in series [2] (CEM/0 cells), the CC50 came out at 188 µM.

Consider `Cc1cn([C@H]2C=C[C@@H](CO)O2)c(=O)[nH]c1=O` [STAVUDINE], for which the pEC50 in series [1] is 6.37. In addition, in series [2] (ccrf-cem), the CC50 was over 50 µM.

On to `Cc1cn([C@H]2C[C@H](N=[N+]=[N-])[C@@H](CO)O2)c(=O)[nH]c1=O` [ZIDOVUDINE], for which, in series [1], the pEC50 is 8.30. In addition, the CC50 in series [2] (CEM/0 cells) was over 100 µM.

The record behind these values is ChEMBL document CHEMBL4610119, “Lipophilic Triphosphate Prodrugs of Various Nucleoside Analogues” (J Med Chem, 2020).
